Laboratory results: paper PMC6086658, “Unified mechanisms for self-RNA recognition by RIG-I Singleton-Merten syndrome variants” (eLife, 2018)
Numbering of substitutions follows the chain as printed.

Key:
RIG-I C268F = biological target: T1, RIG-I C268F (Homo sapiens, UniProt O95786, C268F); test: MANT-nucleotide binding, tryptophan fluorescence FRET
T1 construct: made in house; host or cells: High Five (Trichoplusia ni) insect cells, baculovirus, pFBDM vector
T1 sequence (O95786 1-925 C268F): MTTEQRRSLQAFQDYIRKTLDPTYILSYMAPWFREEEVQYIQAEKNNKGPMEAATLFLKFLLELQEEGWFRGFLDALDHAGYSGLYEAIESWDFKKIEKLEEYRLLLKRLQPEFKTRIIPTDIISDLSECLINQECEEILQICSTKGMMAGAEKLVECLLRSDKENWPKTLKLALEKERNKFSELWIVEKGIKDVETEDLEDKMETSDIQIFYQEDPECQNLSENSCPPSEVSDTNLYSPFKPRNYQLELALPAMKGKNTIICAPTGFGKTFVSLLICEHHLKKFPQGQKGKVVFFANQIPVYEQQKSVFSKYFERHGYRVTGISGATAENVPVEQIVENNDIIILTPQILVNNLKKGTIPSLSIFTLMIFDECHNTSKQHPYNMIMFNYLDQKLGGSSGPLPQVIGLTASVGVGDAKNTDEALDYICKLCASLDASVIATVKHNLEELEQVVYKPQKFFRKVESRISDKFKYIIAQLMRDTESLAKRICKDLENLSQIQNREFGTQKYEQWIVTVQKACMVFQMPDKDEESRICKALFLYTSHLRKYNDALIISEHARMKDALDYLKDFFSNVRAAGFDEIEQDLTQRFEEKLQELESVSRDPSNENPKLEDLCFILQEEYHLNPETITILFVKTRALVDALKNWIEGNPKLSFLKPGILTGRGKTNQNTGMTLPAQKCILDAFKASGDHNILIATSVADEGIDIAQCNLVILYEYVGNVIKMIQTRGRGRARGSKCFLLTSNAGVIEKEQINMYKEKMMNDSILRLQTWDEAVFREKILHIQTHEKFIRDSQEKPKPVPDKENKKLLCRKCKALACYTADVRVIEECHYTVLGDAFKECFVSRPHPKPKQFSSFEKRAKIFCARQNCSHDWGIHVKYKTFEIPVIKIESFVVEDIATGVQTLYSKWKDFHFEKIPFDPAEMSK
Experimental: (§1) Binding of MANT-ATP and MANT-ATPγS to different full-length RIG-I mutants (1–925, N-terminal His-tag) was determined via Förster resonance energy transfer from RIG-I to MANT-ATP (Jena Bioscience, Jena, Germany). All samples were prepared in 96-well black chimney microplates. 2.2 µM protein and equimolar concentrations of a 14mer dsRNA (5'-CGACGCUAGCGUCG-3', see 'Protein crystalization') were pre-incubated with different MANT-ATP concentrations (0.2 µM – 200 µM) for 15 min at room temperature in assay buffer (25 mM HEPES, 50 mM NaCl, 5 mM MgCl2, 1 mM DTT, pH 7). Fluorescence of MANT-ATP was measured in a TECAN M1000 microplate reader at λex/em = 290/448 nm, gain = 170 using an average of five reads per well. Assays were performed four times in independent experiments using the same protein purification batch. For determination of affinities fluorescence values were fitted to Equation (1) using R, where y is the fluorescence, [P] is the protein concentration, Bmax is the maximal fluorescence and KD is the dissociation constant. Fitting was performed globally on all available datasets. Representative values in figures are mean values ± SD.

RIG-I K270I = biological target: T2, RIG-I K270I (Homo sapiens, UniProt O95786, K270I); test: as above
T2 construct: different full-length RIG-I mutants (1–925, N-terminal His-tag); made in house; host or cells: High Five (Trichoplusia ni) insect cells, baculovirus, pFBDM vector
T2 sequence (O95786 1-925 K270I): T1 sequence (O95786 1-925 C268F) with F268C, K270I
Experimental: as §1

[1] = presence of equimolar 14mer dsRNA, n.f. = no fit possible as no saturation was reached

## MANT-ATP
RIG-I C268F; absence of RNA, n = 4, read-out: Affinity (KD) to RIG-I C268F
  Kd: 166 ± 34 µM
RIG-I C268F; [1]
  Affinity (KD) to RIG-I C268F + RNA: n.f.
RIG-I K270I; absence of RNA, n = 4, read-out: Affinity (KD) to RIG-I K270I
  Kd: 298 ± 81 µM
RIG-I K270I; [1]
  Affinity (KD) to RIG-I K270I + RNA: n.f.
